Test results reported in PubChem BioAssay AID1918991 (Molecular Pharmacology Branch, DTP, NCI, 2023).
pIC50: −log10 of the molar value.

System: 186277-243-T-J2-PDC complex spheroid growth
Assay: Anticancer human tumor 186277-243-T-J2-PDC patient-derived colon adenocarcinoma cell line growth inhibition [AhR]
Conditions: for pIC50: curve of first compound; for viability, T/C: stronger effect = lower value
Procedure, shortened: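 Agents were dosed in half-log steps down from roughly clinical Cmax, or from 10 microM where Cmax was unknown, alone and with AhR antagonists. Read-out: percent test/control growth of tumor spheroids containing HUVEC and MSC stromal cells.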

[1] = second compound 0.1 µM, first compound 0.0316 µM
[2] = second compound 0.1 µM, first compound 0.1 µM
[3] = second compound 0.1 µM, first compound 0.316 µM
[4] = second compound 0.1 µM, first compound 1 µM
[5] = second compound 0.1 µM, first compound 3.16 µM
[6] = second compound 0.1 µM, first compound 10 µM
[7] = second compound 0.316 µM, first compound 0.0316 µM
[8] = second compound 0.316 µM, first compound 0.1 µM
[9] = second compound 0.316 µM, first compound 0.316 µM
[10] = second compound 0.316 µM, first compound 1 µM
[11] = second compound 0.316 µM, first compound 3.16 µM
[12] = second compound 0.316 µM, first compound 10 µM
[13] = second compound 1 µM, first compound 0.0316 µM
[14] = second compound 1 µM, first compound 0.1 µM
[15] = second compound 1 µM, first compound 0.316 µM
[16] = second compound 1 µM, first compound 1 µM
[17] = second compound 1 µM, first compound 3.16 µM
[18] = second compound 1 µM, first compound 10 µM
[19] = second compound 3.16 µM, first compound 0.0316 µM
[20] = second compound 3.16 µM, first compound 0.1 µM
[21] = second compound 3.16 µM, first compound 0.316 µM
[22] = second compound 3.16 µM, first compound 1 µM
[23] = second compound 3.16 µM, first compound 3.16 µM
[24] = second compound 3.16 µM, first compound 10 µM
[25] = second compound 10 µM, first compound 0.0316 µM
[26] = second compound 10 µM, first compound 0.1 µM
[27] = second compound 10 µM, first compound 0.316 µM
[28] = second compound 10 µM, first compound 1 µM
[29] = second compound 10 µM, first compound 3.16 µM
[30] = second compound 10 µM, first compound 10 µM
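Note: spheroids exposed to compounds for seven days before the viability read.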
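Throughout, for viability, T/C: luminescent signal used as a stand-in for viable cell amount; 100% = DMSO vehicle control wells.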

CC(C)c1c(-c2ccccc2)nc2c(C#N)c[nH]n2c1=O + CC(CO)NC(=O)c1cc(-c2ccc(Cl)cc2)nn(-c2cnn(C)c2)c1=O
pIC50 (second compound 0.1 µM): < 5.00 | pIC50 (second compound 0.316 µM): < 5.00 | pIC50 (second compound 1 µM): < 5.00 | pIC50 (second compound 3.16 µM): < 5.00 | pIC50 (second compound 10 µM): < 5.00 | viability, T/C [1]: 95.2% | viability, T/C [2]: 93.5% | viability, T/C [3]: 88.4% | viability, T/C [4]: 95.5% | viability, T/C [5]: 89.5% | viability, T/C [6]: 79.6% | viability, T/C [7]: 99.5% | viability, T/C [8]: 100% | viability, T/C [9]: 109% | viability, T/C [10]: 92.9% | viability, T/C [11]: 99.2% | viability, T/C [12]: 91.7% | viability, T/C [13]: 104% | viability, T/C [14]: 113% | viability, T/C [15]: 105% | viability, T/C [16]: 104% | viability, T/C [17]: 86.4% | viability, T/C [18]: 93.8% | viability, T/C [19]: 92.2% | viability, T/C [20]: 85.1% | viability, T/C [21]: 91.9% | viability, T/C [22]: 89.8% | viability, T/C [23]: 87.3% | viability, T/C [24]: 95% | viability, T/C [25]: 90.2% | viability, T/C [26]: 85.1% | viability, T/C [27]: 81.8% | viability, T/C [28]: 85.5% | viability, T/C [29]: 76.9% | viability, T/C [30]: 87.3%

CC1COCCN1c1cc(-c2ccnn2C)c2ccnc(-c3ccn[nH]3)c2n1 (stereo not given) + CC(CO)NC(=O)c1cc(-c2ccc(Cl)cc2)nn(-c2cnn(C)c2)c1=O
pIC50 (second compound 0.1 µM): 7.61 | pIC50 (second compound 0.316 µM): 7.63 | pIC50 (second compound 1 µM): 7.69 | pIC50 (second compound 3.16 µM): 7.72 | pIC50 (second compound 10 µM): 7.94 | viability, T/C (second compound 0.1 µM, first compound 0.00316 µM): 100% | viability, T/C (second compound 0.1 µM, first compound 0.01 µM): 89.9% | viability, T/C [1]: 38.1% | viability, T/C [2]: 7.53% | viability, T/C [3]: 3.44% | viability, T/C [4]: 2.42% | viability, T/C (second compound 0.316 µM, first compound 0.00316 µM): 91% | viability, T/C (second compound 0.316 µM, first compound 0.01 µM): 86.3% | viability, T/C [7]: 37.5% | viability, T/C [8]: 6.69% | viability, T/C [9]: 2.84% | viability, T/C [10]: 2.25% | viability, T/C (second compound 1 µM, first compound 0.00316 µM): 103% | viability, T/C (second compound 1 µM, first compound 0.01 µM): 77% | viability, T/C [13]: 34.2% | viability, T/C [14]: 6.17% | viability, T/C [15]: 3.4% | viability, T/C [16]: 2.51% | viability, T/C (second compound 3.16 µM, first compound 0.00316 µM): 82.3% | viability, T/C (second compound 3.16 µM, first compound 0.01 µM): 84.8% | viability, T/C [19]: 24.2% | viability, T/C [20]: 6.02% | viability, T/C [21]: 3.47% | viability, T/C [22]: 2.6% | viability, T/C (second compound 10 µM, first compound 0.00316 µM): 79.3% | viability, T/C (second compound 10 µM, first compound 0.01 µM): 54.1% | viability, T/C [25]: 18.2% | viability, T/C [26]: 6.38% | viability, T/C [27]: 3.92% | viability, T/C [28]: 2.78%

COc1ccc([C@@H](O)c2cc(-c3ncnc4cc(N5CCOCC5)ccc34)c(F)cc2Cl)nn1 + CC(CO)NC(=O)c1cc(-c2ccc(Cl)cc2)nn(-c2cnn(C)c2)c1=O
pIC50 (second compound 0.1 µM): 5.49 | pIC50 (second compound 0.316 µM): 5.43 | pIC50 (second compound 1 µM): 5.52 | pIC50 (second compound 3.16 µM): 5.59 | pIC50 (second compound 10 µM): 5.79 | viability, T/C [1]: 105% | viability, T/C [2]: 96.3% | viability, T/C [3]: 96.8% | viability, T/C [4]: 73.5% | viability, T/C [5]: 51.6% | viability, T/C [6]: 20.7% | viability, T/C [7]: 109% | viability, T/C [8]: 98.8% | viability, T/C [9]: 84.2% | viability, T/C [10]: 85.1% | viability, T/C [11]: 53.9% | viability, T/C [12]: 18.4% | viability, T/C [13]: 95.5% | viability, T/C [14]: 95.6% | viability, T/C [15]: 87.3% | viability, T/C [16]: 78.8% | viability, T/C [17]: 48.4% | viability, T/C [18]: 19.1% | viability, T/C [19]: 88.3% | viability, T/C [20]: 95.7% | viability, T/C [21]: 87% | viability, T/C [22]: 74.8% | viability, T/C [23]: 44.5% | viability, T/C [24]: 18.1% | viability, T/C [25]: 88.8% | viability, T/C [26]: 72.6% | viability, T/C [27]: 78.9% | viability, T/C [28]: 64% | viability, T/C [29]: 30.7% | viability, T/C [30]: 15.6%

O=C(C=Cn1cnc(-c2cc(C(F)(F)F)cc(C(F)(F)F)c2)n1)NNc1cnccn1 + CC(CO)NC(=O)c1cc(-c2ccc(Cl)cc2)nn(-c2cnn(C)c2)c1=O
pIC50 (second compound 0.1 µM): 7.06 | pIC50 (second compound 0.316 µM): 7.05 | pIC50 (second compound 1 µM): 7.14 | pIC50 (second compound 3.16 µM): 7.14 | pIC50 (second compound 10 µM): 7.36 | viability, T/C (second compound 0.1 µM, first compound 0.00949 µM): 80.4% | viability, T/C (second compound 0.1 µM, first compound 0.03 µM): 78.3% | viability, T/C (second compound 0.1 µM, first compound 0.0949 µM): 46.8% | viability, T/C (second compound 0.1 µM, first compound 0.3 µM): 13.1% | viability, T/C (second compound 0.1 µM, first compound 0.949 µM): 3.75% | viability, T/C (second compound 0.1 µM, first compound 3 µM): 1.33% | viability, T/C (second compound 0.316 µM, first compound 0.00949 µM): 78% | viability, T/C (second compound 0.316 µM, first compound 0.03 µM): 83.5% | viability, T/C (second compound 0.316 µM, first compound 0.0949 µM): 46.7% | viability, T/C (second compound 0.316 µM, first compound 0.3 µM): 12.6% | viability, T/C (second compound 0.316 µM, first compound 0.949 µM): 4.18% | viability, T/C (second compound 0.316 µM, first compound 3 µM): 1.56% | viability, T/C (second compound 1 µM, first compound 0.00949 µM): 83.3% | viability, T/C (second compound 1 µM, first compound 0.03 µM): 67.6% | viability, T/C (second compound 1 µM, first compound 0.0949 µM): 46.9% | viability, T/C (second compound 1 µM, first compound 0.3 µM): 13.4% | viability, T/C (second compound 1 µM, first compound 0.949 µM): 4.21% | viability, T/C (second compound 1 µM, first compound 3 µM): 1.3% | viability, T/C (second compound 3.16 µM, first compound 0.00949 µM): 67.8% | viability, T/C (second compound 3.16 µM, first compound 0.03 µM): 63.8% | viability, T/C (second compound 3.16 µM, first compound 0.0949 µM): 46% | viability, T/C (second compound 3.16 µM, first compound 0.3 µM): 12.6% | viability, T/C (second compound 3.16 µM, first compound 0.949 µM): 4.26% | viability, T/C (second compound 3.16 µM, first compound 3 µM): 2.11% | viability, T/C (second compound 10 µM, first compound 0.00949 µM): 62% | viability, T/C (second compound 10 µM, first compound 0.03 µM): 55% | viability, T/C (second compound 10 µM, first compound 0.0949 µM): 38% | viability, T/C (second compound 10 µM, first compound 0.3 µM): 11.7% | viability, T/C (second compound 10 µM, first compound 0.949 µM): 3.48% | viability, T/C (second compound 10 µM, first compound 3 µM): 2.03%
